The values that follow are results of earlier work, collected in patent publication US20130331400A1, “METHOD FOR PRODUCING INDIGO-PLANT LEAF EXTRACT” (SUNSTAR INC.,, priority 2011, published 2013).

Data set [1] has as its system type IV allergic reactions. The note with it: reported in PTL 2.
Data set [2] deals with fungi of the genus Malassezia. The note with it: reported in PTL 1.
For data set [3] the following is noted: general statement in background art.

As for `O=C1c2ccccc2-n2c1nc1ccccc1c2=O` [tryptanthrin], in data set [1], the “Effect on type IV allergic reactions (in words)” value is given as “effect of suppressing type IV allergic reactions”. For the same compound, in data set [2], the “Antibacterial action against fungi of the genus Malassezia (in words)” value is on record as “has an antibacterial action against fungi of the genus Malassezia”. In addition, the “Light stability of tryptanthrin (in words)” value in data set [3] was “poor light stability”.
